Assays:
Pseudomonas aeruginosa [1] = test: Antimicrobial activity against 10^7 CFU/ml Pseudomonas aeruginosa ATCC 9027 assessed as reduction in CFU/ml at measured at 10 ug/ml after 2.5 hrs by time-kill kinetic study relative to control; assay type: functional; set-up: scale not given: the % may be the effect or the level left
Escherichia coli [2] = test: Antimicrobial activity against 10^7 CFU/ml Escherichia coli ATCC 25922 after 22 hrs by serial microdilution method; assay type: functional; settings: ATCC 25922, 22 h
Bacillus subtilis [3] = test: Antimicrobial activity against 10^7 CFU/ml Bacillus subtilis ATCC 6633 after 22 hrs by serial microdilution method; assay type: functional; settings: ATCC 6633, 22 h
HEK-293T = test: Cytotoxicity against human HEK293T cells after 72 hrs by MTT assay; assay type: cell-based
MEF = test: Cytotoxicity against mouse MEF cells after 72 hrs by MTT assay; assay type: cell-based
RPMI-8226 = test: Cytotoxicity against human RPMI8226 cells after 72 hrs by MTT assay; assay type: cell-based; settings: RPMI-8226, 72 h
Staphylococcus aureus [4] = test: Antimicrobial activity against 10^4 CFU/ml Staphylococcus aureus ATCC 25923 assessed as reduction in CFU/ml at measured at 10 ug/ml after 5 hrs by time-kill kinetic study relative to control; assay type: functional; set-up: scale not given: the % may be the effect or the level left
Staphylococcus aureus [5] = test: Antimicrobial activity against 10^4 CFU/ml Staphylococcus aureus ATCC 25923 assessed as reduction in CFU/ml at measured at 10 ug/ml after 22 hrs by time-kill kinetic study relative to control; assay type: functional; set-up: scale not given: the % may be the effect or the level left
Staphylococcus aureus [6] = test: Antimicrobial activity against 10^4 CFU/ml Staphylococcus aureus ATCC 25923 after 22 hrs by serial microdilution method; assay type: functional; settings: ATCC 25923, 22 h
Staphylococcus aureus [7] = test: Antimicrobial activity against Staphylococcus aureus ATCC 25923 at 1 ug/ml after 24 hrs by agar diffusion method; assay type: functional; settings: ATCC 25923, 24 h, read-out: DIZ
Candida albicans [8] = test: Antimicrobial activity against 10^4 CFU/ml Candida albicans ATCC 32354 after 22 hrs by serial microdilution method; assay type: functional; settings: ATCC 32354, 22 h
Pseudomonas aeruginosa [9] = test: Antimicrobial activity against 10^4 CFU/ml Pseudomonas aeruginosa ATCC 9027 assessed as reduction in CFU/ml at measured at 10 ug/ml after 5 hrs by time-kill kinetic study relative to control; assay type: functional; set-up: scale not given: the % may be the effect or the level left
Salmonella enterica [10] = test: Antimicrobial activity against 10^7 CFU/ml Salmonella enterica ATCC 14028 after 22 hrs by serial microdilution method; assay type: functional; settings: ATCC 14028, 22 h
Pseudomonas aeruginosa [11] = test: Antimicrobial activity against 10^7 CFU/ml Pseudomonas aeruginosa ATCC 9027 assessed as reduction in CFU/ml at measured at 10 ug/ml after 22 hrs by time-kill kinetic study relative to control; assay type: functional; set-up: scale not given: the % may be the effect or the level left
Bacillus subtilis [12] = test: Antimicrobial activity against Bacillus subtilis ATCC 6633 at 1 ug/ml after 24 hrs by agar diffusion method; assay type: functional; settings: ATCC 6633, 24 h, read-out: DIZ
Pseudomonas aeruginosa [13] = test: Antimicrobial activity against 10^4 CFU/ml Pseudomonas aeruginosa ATCC 9027 after 22 hrs by serial microdilution method; assay type: functional; settings: ATCC 9027, 22 h
Salmonella enterica [14] = test: Antimicrobial activity against 10^4 CFU/ml Salmonella enterica ATCC 14028 after 22 hrs by serial microdilution method; assay type: functional; settings: ATCC 14028, 22 h
Candida albicans [15] = test: Antimicrobial activity against Candida albicans ATCC 32354 at 1 ug/ml after 24 hrs by agar diffusion method; assay type: functional; settings: ATCC 32354, 24 h, read-out: DIZ
Pseudomonas aeruginosa [16] = test: Antimicrobial activity against Pseudomonas aeruginosa ATCC 9027 at 1 ug/ml after 24 hrs by agar diffusion method; assay type: functional; settings: ATCC 9027, 24 h, read-out: DIZ
Staphylococcus aureus [17] = test: Antimicrobial activity against 10^7 CFU/ml Staphylococcus aureus ATCC 25923 after 22 hrs by serial microdilution method; assay type: functional; settings: ATCC 25923, 22 h
Pseudomonas aeruginosa [18] = test: Antimicrobial activity against 10^4 CFU/ml Pseudomonas aeruginosa ATCC 9027 assessed as reduction in CFU/ml at measured at 10 ug/ml after 22 hrs by time-kill kinetic study relative to control; assay type: functional; set-up: scale not given: the % may be the effect or the level left
Pseudomonas aeruginosa [19] = test: Antimicrobial activity against 10^7 CFU/ml Pseudomonas aeruginosa ATCC 9027 assessed as reduction in CFU/ml at measured at 10 ug/ml after 5 hrs by time-kill kinetic study relative to control; assay type: functional; set-up: scale not given: the % may be the effect or the level left
Staphylococcus aureus [20] = test: Antimicrobial activity against 10^4 CFU/ml Staphylococcus aureus ATCC 25923 assessed as reduction in CFU/ml at measured at 10 ug/ml after 2.5 hrs by time-kill kinetic study relative to control; assay type: functional; set-up: scale not given: the % may be the effect or the level left
Staphylococcus aureus [21] = test: Antimicrobial activity against 10^7 CFU/ml Staphylococcus aureus ATCC 25923 assessed as reduction in CFU/ml at measured at 10 ug/ml after 2.5 hrs by time-kill kinetic study relative to control; assay type: functional; set-up: scale not given: the % may be the effect or the level left
Staphylococcus aureus [22] = test: Antimicrobial activity against 10^7 CFU/ml Staphylococcus aureus ATCC 25923 assessed as reduction in CFU/ml at measured at 10 ug/ml after 5 hrs by time-kill kinetic study relative to control; assay type: functional; set-up: scale not given: the % may be the effect or the level left
Candida albicans [23] = test: Antimicrobial activity against 10^7 CFU/ml Candida albicans ATCC 32354 after 22 hrs by serial microdilution method; assay type: functional; settings: ATCC 32354, 22 h
Salmonella enterica [24] = test: Antimicrobial activity against Salmonella enterica ATCC 14028 at 1 ug/ml after 24 hrs by agar diffusion method; assay type: functional; settings: ATCC 14028, 24 h, read-out: DIZ
Bacillus subtilis [25] = test: Antimicrobial activity against 10^4 CFU/ml Bacillus subtilis ATCC 6633 after 22 hrs by serial microdilution method; assay type: functional; settings: ATCC 6633, 22 h
Staphylococcus aureus [26] = test: Antimicrobial activity against 10^7 CFU/ml Staphylococcus aureus ATCC 25923 assessed as reduction in CFU/ml at measured at 10 ug/ml after 22 hrs by time-kill kinetic study relative to control; assay type: functional; set-up: scale not given: the % may be the effect or the level left
[27] = Cytotoxicity against mouse LMTK cells after 72 hrs by MTT assay; assay type: cell-based; settings: L-M(TK-)
Escherichia coli [28] = test: Antimicrobial activity against Escherichia coli ATCC 25922 at 1 ug/ml after 24 hrs by agar diffusion method; assay type: functional; settings: ATCC 25922, 24 h, read-out: DIZ
Pseudomonas aeruginosa [29] = test: Antimicrobial activity against 10^7 CFU/ml Pseudomonas aeruginosa ATCC 9027 after 22 hrs by serial microdilution method; assay type: functional; settings: ATCC 9027, 22 h
Escherichia coli [30] = test: Antimicrobial activity against 10^4 CFU/ml Escherichia coli ATCC 25922 after 22 hrs by serial microdilution method; assay type: functional; settings: ATCC 25922, 22 h
Pseudomonas aeruginosa [31] = test: Antimicrobial activity against 10^4 CFU/ml Pseudomonas aeruginosa ATCC 9027 assessed as reduction in CFU/ml at measured at 10 ug/ml after 2.5 hrs by time-kill kinetic study relative to control; assay type: functional; set-up: scale not given: the % may be the effect or the level left

SMILES: CCCCCCCCCCCC[N+]12CC[N+](CCCCC[N+]34CC[N+](CCCCCCCCCCCC)(CC3)CC4)(CC1)CC2.[Br-].[Br-].[Cl-].[Cl-]
- Activity (Pseudomonas aeruginosa [1]): 100%
- MBC (Escherichia coli [2]): 6.3 mg/L
- MIC (Escherichia coli [2]): 6.3 mg/L
- MBC (Bacillus subtilis [3]): 3.1 mg/L
- MIC (Bacillus subtilis [3]): 3.1 mg/L
- IC50 (HEK-293T): 23.4 mg/L
- IC50 (MEF): 12.7 mg/L
- IC50 (RPMI-8226): 11.7 mg/L
- Activity (Staphylococcus aureus [4]): 100%
- Activity (Staphylococcus aureus [5]): 100%
- MBC (Staphylococcus aureus [6]): 6.3 mg/L
- MIC (Staphylococcus aureus [6]): 3.1 mg/L
- zone of inhibition at 1 µg/mL (Staphylococcus aureus [7]): 10 mm
- MBC (Candida albicans [8]): 6.3 mg/L
- MIC (Candida albicans [8]): 3.1 mg/L
- Activity (Pseudomonas aeruginosa [9]): 100%
- MBC (Salmonella enterica [10]): 50 mg/L
- MIC (Salmonella enterica [10]): 25 mg/L
- Activity (Pseudomonas aeruginosa [11]): 100%
- zone of inhibition at 1 µg/mL (Bacillus subtilis [12]): 10 mm
- MBC (Pseudomonas aeruginosa [13]): < 1.6 mg/L
- MIC (Pseudomonas aeruginosa [13]): < 1.6 mg/L
- MBC (Salmonella enterica [14]): 25 mg/L
- MIC (Salmonella enterica [14]): 25 mg/L
- zone of inhibition at 1 µg/mL (Candida albicans [15]): 10 mm
- zone of inhibition at 1 µg/mL (Pseudomonas aeruginosa [16]): 7 mm
- MBC (Staphylococcus aureus [17]): 12.5 mg/L
- MIC (Staphylococcus aureus [17]): 6.3 mg/L
- Activity (Pseudomonas aeruginosa [18]): 100%
- Activity (Pseudomonas aeruginosa [19]): 100%
- Activity (Staphylococcus aureus [20]): 100%
- Activity (Staphylococcus aureus [21]): 100%
- Activity (Staphylococcus aureus [22]): 100%
- MBC (Candida albicans [23]): 12.5 mg/L
- MIC (Candida albicans [23]): 12.5 mg/L
- zone of inhibition at 1 µg/mL (Salmonella enterica [24]): 7 mm
- MBC (Bacillus subtilis [25]): < 1.6 mg/L
- MIC (Bacillus subtilis [25]): < 1.6 mg/L
- Activity (Staphylococcus aureus [26]): 100%
- IC50 [27]: 25.6 mg/L
- zone of inhibition at 1 µg/mL (Escherichia coli [28]): 9 mm
- MBC (Pseudomonas aeruginosa [29]): 6.3 mg/L
- MIC (Pseudomonas aeruginosa [29]): 6.3 mg/L
- MBC (Escherichia coli [30]): 3.1 mg/L
- MIC (Escherichia coli [30]): 3.1 mg/L
- Activity (Pseudomonas aeruginosa [31]): 99.9%

SMILES: CCCCCCCCCC[N+]12CC[N+](CCCCC[N+]34CC[N+](CCCCCCCCCC)(CC3)CC4)(CC1)CC2.[Br-].[Br-].[Br-].[Br-]
- Activity (Pseudomonas aeruginosa [1]): 0%
- MBC (Escherichia coli [2]): 12.5 mg/L
- MIC (Escherichia coli [2]): 6.3 mg/L
- MBC (Bacillus subtilis [3]): 3.1 mg/L
- MIC (Bacillus subtilis [3]): 3.1 mg/L
- IC50 (HEK-293T): 93.8 mg/L
- IC50 (MEF): 23.4 mg/L
- IC50 (RPMI-8226): 45.2 mg/L
- Activity (Staphylococcus aureus [4]): 100%
- Activity (Staphylococcus aureus [5]): 100%
- MBC (Staphylococcus aureus [6]): 12.5 mg/L
- MIC (Staphylococcus aureus [6]): 3.1 mg/L
- zone of inhibition at 1 µg/mL (Staphylococcus aureus [7]): 10 mm
- MBC (Candida albicans [8]): < 1.6 mg/L
- MIC (Candida albicans [8]): < 1.6 mg/L
- Activity (Pseudomonas aeruginosa [9]): 99.2%
- MBC (Salmonella enterica [10]): 50 mg/L
- MIC (Salmonella enterica [10]): 12.5 mg/L
- Activity (Pseudomonas aeruginosa [11]): 0%
- zone of inhibition at 1 µg/mL (Bacillus subtilis [12]): 10 mm
- MBC (Pseudomonas aeruginosa [13]): 1.6 mg/L
- MIC (Pseudomonas aeruginosa [13]): 1.6 mg/L
- MBC (Salmonella enterica [14]): 25 mg/L
- MIC (Salmonella enterica [14]): 12.5 mg/L
- zone of inhibition at 1 µg/mL (Candida albicans [15]): 10 mm
- zone of inhibition at 1 µg/mL (Pseudomonas aeruginosa [16]): 6 mm
- MBC (Staphylococcus aureus [17]): 6.3 mg/L
- MIC (Staphylococcus aureus [17]): 6.3 mg/L
- Activity (Pseudomonas aeruginosa [18]): 25%
- Activity (Pseudomonas aeruginosa [19]): 43%
- Activity (Staphylococcus aureus [20]): 100%
- Activity (Staphylococcus aureus [21]): 100%
- Activity (Staphylococcus aureus [22]): 100%
- MBC (Candida albicans [23]): < 1.6 mg/L
- MIC (Candida albicans [23]): < 1.6 mg/L
- zone of inhibition at 1 µg/mL (Salmonella enterica [24]): 7 mm
- MBC (Bacillus subtilis [25]): < 1.6 mg/L
- MIC (Bacillus subtilis [25]): < 1.6 mg/L
- Activity (Staphylococcus aureus [26]): 100%
- IC50 [27]: 56.4 mg/L
- zone of inhibition at 1 µg/mL (Escherichia coli [28]): 10 mm
- MBC (Pseudomonas aeruginosa [29]): 25 mg/L
- MIC (Pseudomonas aeruginosa [29]): 12.5 mg/L
- MBC (Escherichia coli [30]): 6.3 mg/L
- MIC (Escherichia coli [30]): 6.3 mg/L
- Activity (Pseudomonas aeruginosa [31]): 62.3%

— ChEMBL document CHEMBL3407338, “Synthesis and structure-activity relationship of novel 1,4-diazabicyclo[2.2.2]octane derivatives as potent antimicrobial agents” (Eur J Med Chem, 2015)
